pEC50: −log10 of the molar value. Converted amounts (≈) assume the structure as drawn.
How the values were obtained:
[1] = target: A. baumannii PBP2 (Acinetobacter baumannii, UniProt D0C8Z9); test: Bocillin-FL competition binding via gel filtration, A. baumannii PBP2
Method in brief: (§1)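 Competitive equilibrium binding; reporter Bocillin-FL. PBP + inhibitor (titration) pre-incubated → Bocillin-FL, 15 min → gel filtration → fluorescence. EC50 from Hill fit of fraction bound vs [inhibitor].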

[2] = test system: B. pseudomallei Bp82; test: microbe, parasite or virus in culture; format: cell-based; details: Burkholderia pseudomallei, BP82, read-out: Minimum inhibitory concentration, B. pseudomallei Bp82
[3] = target: T1, A. baumannii PBP1a (Acinetobacter baumannii, UniProt A0ABX6CK30); test: Bocillin-FL competition binding via gel filtration, A. baumannii PBP1a; details: competition binding assay using Bocillin-FL via gel filtration; read-out: A. baumannii PBP1a Potency
T1 sequence (A0ABX6CK30 1-851): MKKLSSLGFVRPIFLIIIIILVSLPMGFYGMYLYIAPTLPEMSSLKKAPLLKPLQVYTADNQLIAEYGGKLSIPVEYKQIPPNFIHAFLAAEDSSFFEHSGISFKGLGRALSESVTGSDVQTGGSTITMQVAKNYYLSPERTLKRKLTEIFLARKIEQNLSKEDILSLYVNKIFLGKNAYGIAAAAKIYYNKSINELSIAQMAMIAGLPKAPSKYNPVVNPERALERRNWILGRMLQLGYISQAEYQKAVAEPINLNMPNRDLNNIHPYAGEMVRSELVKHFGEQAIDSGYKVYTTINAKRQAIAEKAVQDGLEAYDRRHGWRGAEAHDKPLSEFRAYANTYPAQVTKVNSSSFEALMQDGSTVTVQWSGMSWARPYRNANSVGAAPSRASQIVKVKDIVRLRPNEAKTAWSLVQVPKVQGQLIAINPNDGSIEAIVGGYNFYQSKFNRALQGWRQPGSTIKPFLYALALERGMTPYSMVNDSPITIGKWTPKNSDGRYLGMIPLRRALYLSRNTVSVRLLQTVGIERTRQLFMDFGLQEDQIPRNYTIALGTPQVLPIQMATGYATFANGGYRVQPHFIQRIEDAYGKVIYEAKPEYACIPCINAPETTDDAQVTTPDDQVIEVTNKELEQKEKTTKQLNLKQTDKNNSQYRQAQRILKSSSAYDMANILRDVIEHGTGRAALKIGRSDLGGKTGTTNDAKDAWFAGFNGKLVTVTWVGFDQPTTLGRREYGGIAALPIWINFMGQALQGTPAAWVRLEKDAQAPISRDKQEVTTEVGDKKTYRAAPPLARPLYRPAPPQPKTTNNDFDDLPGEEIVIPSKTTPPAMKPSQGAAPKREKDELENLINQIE
Method in brief: as §1

A. baumannii PBP2, sequence (D0C8Z9 whole entry): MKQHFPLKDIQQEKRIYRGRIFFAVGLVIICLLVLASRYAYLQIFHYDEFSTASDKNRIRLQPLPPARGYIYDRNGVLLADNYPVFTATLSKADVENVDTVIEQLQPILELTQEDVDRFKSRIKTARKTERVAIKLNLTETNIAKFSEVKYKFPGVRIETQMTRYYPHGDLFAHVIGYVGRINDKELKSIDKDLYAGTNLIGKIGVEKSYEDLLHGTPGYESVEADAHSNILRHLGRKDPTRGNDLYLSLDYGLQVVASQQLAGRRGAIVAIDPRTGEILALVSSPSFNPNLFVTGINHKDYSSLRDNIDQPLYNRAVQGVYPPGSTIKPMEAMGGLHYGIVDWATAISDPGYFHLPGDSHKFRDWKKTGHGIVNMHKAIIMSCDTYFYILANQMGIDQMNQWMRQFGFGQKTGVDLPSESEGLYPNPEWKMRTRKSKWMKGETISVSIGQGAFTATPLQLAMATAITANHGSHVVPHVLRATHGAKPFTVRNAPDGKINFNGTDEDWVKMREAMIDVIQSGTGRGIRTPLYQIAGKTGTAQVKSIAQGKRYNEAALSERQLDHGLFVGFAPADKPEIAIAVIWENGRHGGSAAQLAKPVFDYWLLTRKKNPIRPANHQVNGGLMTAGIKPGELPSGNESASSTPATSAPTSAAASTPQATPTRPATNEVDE

O=C(NCCCN1CCN(C(=O)NC(C(=O)N[C@H]2Cc3ccc(F)c(C(=O)O)c3OB2O)c2cc(F)c(O)c(O)c2Cl)C(=O)C1=O)c1ccncc1 (stereo partly drawn) [Example 205, (3R)-3-(2-(2-chloro-5-fluoro-3,4-dihydroxyphenyl)-2-(4-(3-(isonicotinamido)propyl)-2,3-dioxopiperazine-1-carboxamido)acetamido)-7-fluoro-2-hydroxy-3,4-dihydro-2H-benzo[e][1,2]oxaborinine-8-carboxylic acid]
pEC50 [1]: 4.30 to 5.00
MIC [2]: < 1 µg/mL
pEC50 [3]: 3.60 to 4.30

O=C(NCCN1CCN(C(=O)NC(C(=O)N[C@H]2Cc3ccc(F)c(C(=O)O)c3OB2O)c2cc(F)c(O)c(O)c2Cl)C(=O)C1=O)c1ccc(O)cc1 (stereo partly drawn) [Example 214, (3R)-3-(2-(2-chloro-5-fluoro-3,4-dihydroxyphenyl)-2-(4-(2-(4-hydroxybenzamido)ethyl)-2,3-dioxopiperazine-1-carboxamido)acetamido)-7-fluoro-2-hydroxy-3,4-dihydro-2H-benzo[e][1,2]oxaborinine-8-carboxylic acid]
pEC50 [1]: 4.30 to 5.00
MIC [2]: 2 to 4 µg/mL (≈ 2.68 to 5.36 µM)
pEC50 [3]: 4.30 to 5.00

O=C(NCCN1CCN(C(=O)NC(C(=O)N[C@H]2Cc3ccc(F)c(C(=O)O)c3OB2O)c2cc(F)c(O)c(O)c2Cl)C(=O)C1=O)c1ccncc1 (stereo partly drawn) [Example 216, (3R)-3-(2-(2-chloro-5-fluoro-3,4-dihydroxyphenyl)-2-(4-(2-(isonicotinamido)ethyl)-2,3-dioxopiperazine-1-carboxamido)acetamido)-7-fluoro-2-hydroxy-3,4-dihydro-2H-benzo[e][1,2]oxaborinine-8-carboxylic acid]
pEC50 [1]: 4.30 to 5.00
MIC [2]: < 1 µg/mL
pEC50 [3]: 4.30 to 5.00

O=C(NCCN1CCN(C(=O)N[C@@H](C(=O)N[C@H]2Cc3ccc(F)c(C(=O)O)c3OB2O)c2cc(F)c(O)c(O)c2Cl)C(=O)C1=O)Nc1cccnc1 [Example 222, (R)-3-((R)-2-(2-chloro-5-fluoro-3,4-dihydroxyphenyl)-2-(2,3-dioxo-4-(2-(3-(pyridin-3-yl)ureido)ethyl)piperazine-1-carboxamido)acetamido)-7-fluoro-2-hydroxy-3,4-dihydro-2H-benzo[e][1,2]oxaborinine-8-carboxylic acid]
pEC50 [1]: 4.30 to 5.00
MIC [2]: < 1 µg/mL
pEC50 [3]: 4.30 to 5.00

O=C(NCCCN1CCN(C(=O)NC(C(=O)N[C@H]2Cc3ccc(F)c(C(=O)O)c3OB2O)c2cc(F)c(O)c(O)c2Cl)C(=O)C1=O)Nc1ccc(O)cc1 (stereo partly drawn) [Example 227, (3R)-3-(2-(2-chloro-5-fluoro-3,4-dihydroxyphenyl)-2-(4-(3-(3-(4-hydroxyphenyl)ureido)propyl)-2,3-dioxopiperazine-1-carboxamido)acetamido)-7-fluoro-2-hydroxy-3,4-dihydro-2H-benzo[e][1,2]oxaborinine-8-carboxylic acid]
pEC50 [1]: 4.30 to 5.00
MIC [2]: < 1 µg/mL
pEC50 [3]: 4.30 to 5.00

O=C(NCCCN1CCN(C(=O)NC(C(=O)N[C@H]2Cc3ccc(F)c(C(=O)O)c3OB2O)c2cc(F)c(O)c(O)c2Cl)C(=O)C1=O)Nc1ccncc1 (stereo partly drawn) [Example 228, (3R)-3-(2-(2-chloro-5-fluoro-3,4-dihydroxyphenyl)-2-(2,3-dioxo-4-(3-(3-(pyridin-4-yl)ureido)propyl)piperazine-1-carboxamido)acetamido)-7-fluoro-2-hydroxy-3,4-dihydro-2H-benzo[e][1,2]oxaborinine-8-carboxylic acid]
pEC50 [1]: 4.30 to 5.00
MIC [2]: < 1 µg/mL
pEC50 [3]: 4.30 to 5.00

O=C(NCCCN1CCN(C(=O)N[C@@H](C(=O)N[C@H]2Cc3ccc(F)c(C(=O)O)c3OB2O)c2cc(F)c(O)c(O)c2Cl)C1=O)c1cccc(O)c1 [Example 255, (R)-3-((R)-2-(2-chloro-5-fluoro-3,4-dihydroxyphenyl)-2-(3-(3-(3-hydroxybenzamido)propyl)-2-oxoimidazolidine-1-carboxamido)acetamido)-7-fluoro-2-hydroxy-3,4-dihydro-2H-benzo[e][1,2]oxaborinine-8-carboxylic acid]
pEC50 [1]: 4.30 to 5.00
MIC [2]: < 1 µg/mL
pEC50 [3]: 4.30 to 5.00

O=C(NCCCN1CCN(C(=O)N[C@@H](C(=O)N[C@H]2Cc3ccc(F)c(C(=O)O)c3OB2O)c2cc(F)c(O)c(O)c2Cl)C1=O)Nc1cccc(O)c1 [Example 258, (R)-3-((R)-2-(2-chloro-5-fluoro-3,4-dihydroxyphenyl)-2-(3-(3-(3-(3-hydroxyphenyl)ureido)propyl)-2-oxoimidazolidine-1-carboxamido)acetamido)-7-fluoro-2-hydroxy-3,4-dihydro-2H-benzo[e][1,2]oxaborinine-8-carboxylic acid]
pEC50 [1]: > 5.00
MIC [2]: < 1 µg/mL
pEC50 [3]: 4.30 to 5.00

O=C(NCCCN1CCN(C(=O)NC(C(=O)N[C@H]2Cc3ccc(F)c(C(=O)O)c3OB2O)c2cc(F)c(O)c(O)c2Cl)C1=O)Nc1cccnc1 (stereo partly drawn) [Example 259, (3R)-3-(2-(2-chloro-5-fluoro-3,4-dihydroxyphenyl)-2-(2-oxo-3-(3-(3-(pyridin-3-yl)ureido)propyl)imidazolidine-1-carboxamido)acetamido)-7-fluoro-2-hydroxy-3,4-dihydro-2H-benzo[e][1,2]oxaborinine-8-carboxylic acid]
pEC50 [1]: > 5.00
MIC [2]: < 1 µg/mL
pEC50 [3]: 4.30 to 5.00

From patent US20240270762A1, “PENICILLIN-BINDING PROTEIN INHIBITORS” (priority 2021, published 2024)
